According to patent publication US10730872B2, “Pesticidally active heterocyclic derivatives with sulphur containing sustitutents” (SYNGENTA PARTICIPATIONS AG, priority 2015, dated 2020):

Key:
Type in all cases: in vivo
[1] = test system: Euschistus heros; test: Euschistus heros (Neotropical Brown Stink Bug); settings: 120 h, application rate of 200 ppm, sprayed soybean leaves, N2 nymphs, 5 days after infestation, read-out: effect in at least one of the two categories (mortality or growth inhibition)
Procedure: Soybean leaves on agar in 24-well microtiter plates were sprayed with aqueous test solutions prepared from 10,000 ppm DMSO stock solutions. After drying the leaves were infested with N2 nymphs. The samples were assessed for mortality and growth inhibition in comparison to untreated samples 5 days after infestation.

[2] = test system: Myzus persicae; test: Myzus persicae (Green Peach Aphid). Systemic Activity; settings: 144 h, test rate of 24 ppm, roots of infested pea seedlings in test solution, 6 days
Procedure: Roots of pea seedlings infested with an aphid population of mixed ages were placed directly into aqueous test solutions prepared from 10,000 DMSO stock solutions. The samples were assessed for mortality 6 days after placing seedlings into test solutions.

[3] = test system: Spodoptera littoralis; test: Spodoptera littoralis (Egyptian Cotton Leaf Worm), uptake by lettuce roots from agar; settings: 144 h, test rate of 12.5 ppm, mixed with agar, absorbed by lettuce roots, Spodoptera eggs, 6 days after infestation, read-out: effect in at least one of the three categories (mortality, anti-feeding, or growth inhibition)
Description: Test compounds were applied by pipette from 10,000 ppm DMSO stock solutions into 24-well plates and mixed with agar. Lettuce seeds were placed onto the agar and the multi well plate was closed by another plate which contained also agar. After 7 days the compound was absorbed by the roots and the lettuce grew into the lid plate. The lettuce leaves were then cut off into the lid plate. Spodoptera eggs were pipetted through a plastic stencil onto a humid gel blotting paper and the lid plate was closed with it. The samples were assessed for mortality, anti-feedant effect and growth inhibition in comparison to untreated samples 6 days after infestation.

[4] = test system: Spodoptera littoralis; test: Spodoptera littoralis (Egyptian Cotton Leaf Worm), sprayed cotton leaf discs; settings: foliar, 72 h, application rate of 200 ppm, L1 larvae, 3 days after infestation
Procedure: Cotton leaf discs were placed onto agar in 24-well microtiter plates and sprayed with aqueous test solutions prepared from 10,000 ppm DMSO stock solutions. After drying the leaf discs were infested with five L1 larvae. The samples were assessed for mortality, anti-feeding effect, and growth inhibition in comparison to untreated samples 3 days after infestation. Control of Spodoptera littoralis by a test sample is given when at least one of the categories mortality, anti-feedant effect, and growth inhibition is higher than the untreated sample.

[5] = test system: Bemisia tabaci; test: Bemisia tabaci (Cotton White Fly): Feeding/Contact Activity; settings: foliar, 144 h, application rate of 200 ppm, sprayed cotton leaf discs, adult white flies, 6 days after incubation
Procedure: Cotton leaf discs were placed on agar in 24-well microtiter plates and sprayed with aqueous test solutions prepared from 10,000 ppm DMSO stock solutions. After drying the leaf discs were infested with adult white flies. The samples were checked for mortality 6 days after incubation.

[6] = test system: Plutella xylostella; test: Plutella xylostella (Diamond Back Moth); settings: 120 h, application rate of 200 ppm, artificial diet, L2 larvae, 5 days after infestation, read-out: effect in at least one of the two categories (mortality or growth inhibition)
Procedure: (§1) 24-well microtiter plates with artificial diet were treated with aqueous test solutions prepared from 10,000 ppm DMSO stock solutions by pipetting. After drying, the plates were infested with L2 larvae (10 to 15 per well). The samples were assessed for mortality and growth inhibition in comparison to untreated samples 5 days after infestation.

[7] = test system: Myzus persicae; test: Myzus persicae (Green Peach Aphid): Feeding/Contact Activity; settings: foliar, 144 h, application rate of 200 ppm, sprayed sunflower leaf discs, aphid population of mixed ages, 6 days after infestation
Procedure: Sunflower leaf discs were placed onto agar in a 24-well microtiter plate and sprayed with aqueous test solutions prepared from 10,000 ppm DMSO stock solutions. After drying, the leaf discs were infested with an aphid population of mixed ages. The samples were assessed for mortality 6 days after infestation.

[8] = test system: Diabrotica balteata; test: Diabrotica balteata (Corn Root Worm); settings: 96 h, application rate of 200 ppm, sprayed maize sprouts, L2 larvae, 4 days after infestation, read-out: effect in at least one of the two categories (mortality or growth inhibition)
Procedure: as §1, with “Maize sprouts placed onto an agar layer in 24-well” for “24-well”, “plates” for “plates with artificial diet”, “spraying.” for “pipetting.”, “(6” for “(10”, “10” for “15”, “4” for “5”

CCn1c(C(F)(F)F)cc2nc(-c3nc(C(=O)NC4CC4)ccc3S(=O)(=O)CC)n(C)c2c1=O [Compound A20, N-cyclopropyl-6-[5-ethyl-3-methyl-4-oxo-6-(trifluoromethyl)imidazo[4,5-c]pyridin-2-yl]-5-ethylsulfonyl-pyridine-2-carboxamide]
≥ 80%: percent effect (mortality or growth inhibition) at 200 ppm [1] | mortality at 24 ppm [2] | percent effect (mortality, anti-feeding or growth inhibition) at 12.5 ppm [3] | percent control (mortality, anti-feeding effect or growth inhibition) at 200 ppm [4] | mortality at 200 ppm [5] | percent effect (mortality or growth inhibition) at 200 ppm [6] | mortality at 200 ppm [7]

CCn1c(C(F)(F)F)cc2nc(-c3nc(N(C(=O)C4CC4)C(=O)C4CC4)c(Cl)cc3S(=O)(=O)CC)n(C)c2c1=O [Compound A40, N-[3-chloro-6-[5-ethyl-3-methyl-4-oxo-6-(trifluoromethyl)imidazo[4,5-c]pyridin-2-yl]-5-ethylsulfonyl-2-pyridyl]-N-(cyclopropanecarbonyl)cyclopropanecarboxamide]
≥ 80%: percent effect (mortality or growth inhibition) at 200 ppm [1] | percent effect (mortality, anti-feeding or growth inhibition) at 12.5 ppm [3] | percent control (mortality, anti-feeding effect or growth inhibition) at 200 ppm [4] | mortality at 200 ppm [5] | percent effect (mortality or growth inhibition) at 200 ppm [6] | effect mortality or growth inhibition at 200 ppm [8] | mortality at 200 ppm [7]

CCn1c(C(F)(F)F)cc2nc(-c3ncc(NC(=O)C4CC4)cc3S(=O)(=O)CC)n(C)c2c1=O [Compound A7, N-[6-[5-ethyl-3-methyl-4-oxo-6-(trifluoromethyl)imidazo[4,5-c]pyridin-2-yl]-5-ethylsulfonyl-3-pyridyl]cyclopropanecarboxamide]
≥ 80%: percent effect (mortality or growth inhibition) at 200 ppm [1] | mortality at 24 ppm [2] | percent control (mortality, anti-feeding effect or growth inhibition) at 200 ppm [4] | mortality at 200 ppm [5] | percent effect (mortality or growth inhibition) at 200 ppm [6] | mortality at 200 ppm [7]

CCS(=O)(=O)c1ccc(NN)nc1-c1nc2cc(C(F)(F)F)n(C3CC3)c(=O)c2n1C [Compound A45, 5-cyclopropyl-2-(3-ethylsulfonyl-6-hydrazino-2-pyridyl)-3-methyl-6-(trifluoromethyl)imidazo[4,5-c]pyridin-4-one]
≥ 80%: mortality at 24 ppm [2] | percent effect (mortality, anti-feeding or growth inhibition) at 12.5 ppm [3] | percent control (mortality, anti-feeding effect or growth inhibition) at 200 ppm [4] | percent effect (mortality or growth inhibition) at 200 ppm [6] | effect mortality or growth inhibition at 200 ppm [8] | mortality at 200 ppm [7]

CCn1c(C(F)(F)F)cc2nc(-c3ncc(N(C)N)cc3S(=O)(=O)CC)n(C)c2c1=O [Compound A56, 2-[5-[amino(methyl)amino]-3-ethylsulfonyl-2-pyridyl]-5-ethyl-3-methyl-6-(trifluoromethyl)imidazo[4,5-c]pyridin-4-one]
≥ 80%: percent effect (mortality or growth inhibition) at 200 ppm [1] | percent effect (mortality, anti-feeding or growth inhibition) at 12.5 ppm [3] | percent control (mortality, anti-feeding effect or growth inhibition) at 200 ppm [4] | percent effect (mortality or growth inhibition) at 200 ppm [6] | effect mortality or growth inhibition at 200 ppm [8] | mortality at 200 ppm [7]

CCn1c(C(F)(F)F)cc2nc(-c3nc(NC(=O)C4CC4)c(Cl)cc3S(=O)(=O)CC)n(C)c2c1=O [Compound A41, N-[3-chloro-6-[5-ethyl-3-methyl-4-oxo-6-(trifluoromethyl)imidazo[4,5-c]pyridin-2-yl]-5-ethylsulfonyl-2-pyridyl]cyclopropanecarboxamide]
≥ 80%: percent effect (mortality or growth inhibition) at 200 ppm [1] | percent effect (mortality, anti-feeding or growth inhibition) at 12.5 ppm [3] | percent control (mortality, anti-feeding effect or growth inhibition) at 200 ppm [4] | percent effect (mortality or growth inhibition) at 200 ppm [6] | effect mortality or growth inhibition at 200 ppm [8] | mortality at 200 ppm [7]

CCn1c(C(F)(F)F)cc2nc(-c3ncc(N/C=N/OC)cc3S(=O)(=O)CC)n(C)c2c1=O [Compound A26, N-[6-[5-ethyl-3-methyl-4-oxo-6-(trifluoromethyl)imidazo[4,5-c]pyridin-2-yl]-5-ethylsulfonyl-3-pyridyl]-N′-methoxy-formamidine]
≥ 80%: percent effect (mortality or growth inhibition) at 200 ppm [1] | percent effect (mortality, anti-feeding or growth inhibition) at 12.5 ppm [3] | percent control (mortality, anti-feeding effect or growth inhibition) at 200 ppm [4] | percent effect (mortality or growth inhibition) at 200 ppm [6] | effect mortality or growth inhibition at 200 ppm [8]

CCS(=O)(=O)c1ccc(NC)nc1-c1nc2cc(C(F)(F)F)n(C3CC3)c(=O)c2n1C [Compound A51, 5-cyclopropyl-2-[3-ethylsulfonyl-6-(methylamino)-2-pyridyl]-3-methyl-6-(trifluoromethyl)imidazo[4,5-c]pyridin-4-one]
≥ 80%: percent effect (mortality or growth inhibition) at 200 ppm [1] | mortality at 24 ppm [2] | percent effect (mortality, anti-feeding or growth inhibition) at 12.5 ppm [3] | percent control (mortality, anti-feeding effect or growth inhibition) at 200 ppm [4] | mortality at 200 ppm [5] | percent effect (mortality or growth inhibition) at 200 ppm [6] | effect mortality or growth inhibition at 200 ppm [8] | mortality at 200 ppm [7]

CCS(=O)(=O)c1ccc(NO)nc1-c1nc2cc(C(F)(F)F)n(C3CC3)c(=O)c2n1C [Compound A47, 5-cyclopropyl-2-[3-ethylsulfonyl-6-(hydroxyamino)-2-pyridyl]-3-methyl-6-(trifluoromethyl)imidazo[4,5-c]pyridin-4-one]
≥ 80%: percent effect (mortality or growth inhibition) at 200 ppm [1] | mortality at 24 ppm [2] | percent control (mortality, anti-feeding effect or growth inhibition) at 200 ppm [4] | mortality at 200 ppm [5] | percent effect (mortality or growth inhibition) at 200 ppm [6] | effect mortality or growth inhibition at 200 ppm [8] | mortality at 200 ppm [7]

CCn1c(C(F)(F)F)cc2nc(-c3ncc(N(C)C(=O)C4CC4)cc3S(=O)(=O)CC)n(C)c2c1=O [Compound A9, N-[6-[5-ethyl-3-methyl-4-oxo-6-(trifluoromethyl)imidazo[4,5-c]pyridin-2-yl]-5-ethylsulfonyl-3-pyridyl]-N-methyl-cyclopropanecarboxamide]
≥ 80%: percent effect (mortality or growth inhibition) at 200 ppm [1] | mortality at 24 ppm [2] | percent effect (mortality, anti-feeding or growth inhibition) at 12.5 ppm [3] | percent control (mortality, anti-feeding effect or growth inhibition) at 200 ppm [4] | mortality at 200 ppm [5] | percent effect (mortality or growth inhibition) at 200 ppm [6] | mortality at 200 ppm [7]

CCn1c(C(F)(F)F)cc2nc(-c3nc(NC4CC4)c(Cl)cc3S(=O)(=O)CC)n(C)c2c1=O [Compound A31, 2-[5-chloro-6-(cyclopropylamino)-3-ethylsulfonyl-2-pyridyl]-5-ethyl-3-methyl-6-(trifluoromethyl)imidazo[4,5-c]pyridin-4-one]
≥ 80%: percent effect (mortality or growth inhibition) at 200 ppm [1] | percent effect (mortality, anti-feeding or growth inhibition) at 12.5 ppm [3] | percent control (mortality, anti-feeding effect or growth inhibition) at 200 ppm [4] | mortality at 200 ppm [5] | percent effect (mortality or growth inhibition) at 200 ppm [6] | effect mortality or growth inhibition at 200 ppm [8]

CCn1c(C(F)(F)F)cc2nc(-c3nc(Cl)c(N)cc3S(=O)(=O)CC)n(C)c2c1=O [Compound A53, 2-(5-amino-6-chloro-3-ethylsulfonyl-2-pyridyl)-5-ethyl-3-methyl-6-(trifluoromethyl)imidazo[4,5-c]pyridin-4-one]
≥ 80%: percent effect (mortality, anti-feeding or growth inhibition) at 12.5 ppm [3] | percent control (mortality, anti-feeding effect or growth inhibition) at 200 ppm [4] | percent effect (mortality or growth inhibition) at 200 ppm [6] | effect mortality or growth inhibition at 200 ppm [8] | mortality at 200 ppm [7]
